{
  "source": "patent US6903104B2",
  "about": "“Indol-3-YL-2-oxoacetamide compounds and methods of use thereof” (National Health Research Institutes, priority 2001, dated 2005)",
  "system": "human colorectal SW480 tumor xenograft",
  "assay": "Antitumor activity, human colorectal SW480 tumor xenograft",
  "type": "in vivo, athymic nude mice",
  "description": "Human colorectal SW480 cancer cells were subcutaneously implanted into the young male athymic nude mice at 1 million cells per mouse. The treatment schedule of 200 mg/kg daily oral administration for 6 weeks was initiated at the time which the tumor size reached 50˜100 mm^3. Compound was orally gavaged to the nude mice subcutaneously bearing human colorectal SW480 tumor xenograft based on the treatment schedule. The tumor size and body weight of the animals were monitored twice a week through out the 70-day period of observation. The tumor growth was suppressed by the daily oral treatments of compound 56. Tumor sizes of the treated and vehicle control groups were compared at the end of 70-day observation. The size of tumor mass subcutaneously implanted in the nude mice for the treated group was reduced to 26% compared to that of the vehicle control group at the end of the observation period.",
  "data": [
    {"smiles": "Cc1cc(Cn2cc(C(=O)C(=O)Nc3cc(C)ns3)c3ccccc32)on1", "note": "[Compound 56]", "values": [
      {"measurement": "size of tumor mass compared to that of the vehicle control group", "setting": "200 mg/kg daily oral for 6 weeks, end of 70-day observation", "value": 26, "unit": "%"},
      {"measurement": "tumor growth", "setting": "200 mg/kg daily oral treatments", "value": "suppressed"},
      {"measurement": "toxicity as noted by loss of the body weight", "setting": "oral multiple dosing, 200 mg/kg daily for 6 weeks", "value": "no obvious toxicity"}
    ]}
  ]
}
